For test [1], the target named is Serine/threonine-protein kinase WNK3 (Homo sapiens) (UniProt Q9BYP7). As to the kind of experiment: Inhibition of Wnk3 conserved Lys2 (DLKCDNIFITGPTGSVK) in human PBMC at 1 uM.
The target of test [2] is Leucine-rich repeat serine/threonine-protein kinase 2 (Homo sapiens, UniProt Q5S007). The test can be described thus: Inhibition of LRRK2 conserved Lys2 (DLKPHNVLLFTLYPNAAIIAK) in human PBMC at 0.1 uM.
For test [3], the target named is Ribosomal protein S6 kinase alpha-2 (Homo sapiens) (UniProt Q15349). As to the kind of experiment: Inhibition of RSK3 domain1 conserved Lys2 (DLKPENILLDEEGHIKITDFGLSK) in human PBMC at 0.1 uM.
For test [4], the target named is Serine/threonine-protein kinase ULK1 (Homo sapiens) (UniProt O75385). As to the kind of experiment: Inhibition of ULK1 conserved Lys2 (DLKPQNILLSNPAGR) in human PBMC at 1 uM.
The target in test [5] is T1, Mitogen-activated protein kinase kinase kinase 5 (Homo sapiens) (UniProt Q99683).
T1 sequence (whole entry): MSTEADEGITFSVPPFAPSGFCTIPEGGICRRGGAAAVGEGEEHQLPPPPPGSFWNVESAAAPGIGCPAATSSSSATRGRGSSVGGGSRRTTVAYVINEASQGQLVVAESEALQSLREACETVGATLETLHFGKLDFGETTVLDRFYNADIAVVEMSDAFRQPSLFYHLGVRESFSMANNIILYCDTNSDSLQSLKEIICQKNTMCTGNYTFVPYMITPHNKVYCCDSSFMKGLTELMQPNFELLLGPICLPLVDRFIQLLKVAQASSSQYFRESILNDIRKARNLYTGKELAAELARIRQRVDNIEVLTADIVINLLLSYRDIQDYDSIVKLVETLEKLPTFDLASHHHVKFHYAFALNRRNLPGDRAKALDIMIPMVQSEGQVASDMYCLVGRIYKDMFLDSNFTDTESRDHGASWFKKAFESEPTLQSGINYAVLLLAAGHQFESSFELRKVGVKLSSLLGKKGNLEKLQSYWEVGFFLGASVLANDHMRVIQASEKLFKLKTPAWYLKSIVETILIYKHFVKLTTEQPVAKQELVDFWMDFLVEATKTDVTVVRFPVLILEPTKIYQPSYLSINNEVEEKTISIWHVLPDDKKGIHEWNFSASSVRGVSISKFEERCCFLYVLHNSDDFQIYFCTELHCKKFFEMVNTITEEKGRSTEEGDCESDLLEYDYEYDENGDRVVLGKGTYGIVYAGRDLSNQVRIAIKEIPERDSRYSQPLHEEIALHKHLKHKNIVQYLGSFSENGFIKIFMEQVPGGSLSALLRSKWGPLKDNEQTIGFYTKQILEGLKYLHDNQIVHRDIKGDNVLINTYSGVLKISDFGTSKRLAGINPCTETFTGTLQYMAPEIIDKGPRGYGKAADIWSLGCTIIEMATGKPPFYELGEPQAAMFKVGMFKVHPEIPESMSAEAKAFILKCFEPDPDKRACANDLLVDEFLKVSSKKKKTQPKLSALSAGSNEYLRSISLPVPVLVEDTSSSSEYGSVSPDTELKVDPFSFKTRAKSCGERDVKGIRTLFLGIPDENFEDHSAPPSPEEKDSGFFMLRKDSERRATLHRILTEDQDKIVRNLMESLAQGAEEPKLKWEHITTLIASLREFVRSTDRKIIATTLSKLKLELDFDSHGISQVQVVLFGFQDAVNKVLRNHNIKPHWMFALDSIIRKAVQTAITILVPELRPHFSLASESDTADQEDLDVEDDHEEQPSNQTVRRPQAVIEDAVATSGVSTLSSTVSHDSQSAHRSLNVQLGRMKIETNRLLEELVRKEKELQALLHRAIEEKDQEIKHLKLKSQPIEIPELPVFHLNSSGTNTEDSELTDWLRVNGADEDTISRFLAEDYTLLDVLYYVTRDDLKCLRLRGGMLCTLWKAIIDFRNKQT
The test can be described thus: Inhibition of MAP3K5 conserved Lys1 (IAIKEIPER) in human PBMC at 0.1 uM.

Test [6] deals with MAP kinase-activated protein kinase 3 (Homo sapiens) (UniProt Q16644). As to the kind of experiment: Inhibition of MAPKAPK3 ATP binding site (QVLGLGVNGKVLECFHR) in human PBMC at 1 uM.
The target of test [7] is Serine/threonine-protein kinase Nek9 (Homo sapiens) (UniProt Q8TD19). As to the kind of experiment: Inhibition of NEK9 conserved Lys2 (DIKTLNIFLTK) in human PBMC at 1 uM.
In test [8] the target is T2, Serine/threonine-protein kinase 3 (Homo sapiens) (UniProt Q13188).
T2 sequence (whole entry): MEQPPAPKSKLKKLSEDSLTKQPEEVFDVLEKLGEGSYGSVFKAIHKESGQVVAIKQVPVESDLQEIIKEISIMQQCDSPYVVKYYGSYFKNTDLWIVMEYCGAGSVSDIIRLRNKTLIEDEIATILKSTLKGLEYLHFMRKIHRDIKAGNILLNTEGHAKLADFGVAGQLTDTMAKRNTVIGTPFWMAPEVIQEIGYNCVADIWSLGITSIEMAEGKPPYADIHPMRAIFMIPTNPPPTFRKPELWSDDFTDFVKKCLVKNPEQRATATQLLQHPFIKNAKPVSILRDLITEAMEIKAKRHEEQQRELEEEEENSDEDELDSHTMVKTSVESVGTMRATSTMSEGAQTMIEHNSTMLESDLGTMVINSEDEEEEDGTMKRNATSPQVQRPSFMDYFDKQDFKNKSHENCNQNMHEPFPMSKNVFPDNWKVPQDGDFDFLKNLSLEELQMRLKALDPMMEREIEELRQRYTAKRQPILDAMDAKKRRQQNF
As to the kind of experiment: Inhibition of MST2 conserved Lys1 (ESGQVVAIKQVPVESDLQEIIK) in human PBMC at 1 uM.

Test [9] concerns the target 5'-AMP-activated protein kinase catalytic subunit alpha-2 (Homo sapiens) (UniProt P54646). The test can be described thus: Inhibition of AMPKa2 labeling at conserved Lys2 (DLKPENVLLDAHMNAK) in human PBMC at 1 uM.
In test [10] the target is Serine/threonine-protein kinase Nek6 (Homo sapiens) (UniProt Q9HC98). The test can be described thus: Inhibition of NEK6 conserved Lys2 (DIKPANVFITATGVVK) in human PBMC at 0.1 uM.
Test [11] deals with Tyrosine-protein kinase BTK (Homo sapiens) (UniProt Q06187). The test can be described thus: Inhibition of BTK labeling at activation Loop (YVLDDEYTSSVGSKFPVR) in human PBMC at 1 uM.
Test [12] deals with Tyrosine-protein kinase ABL1 (Homo sapiens) (UniProt P00519). The test can be described thus: Inhibition of ABL labeling at activation Loop (LMTGDTYTAHAGAKFPIK) in human PBMC at 0.1 uM.

Chain of Serine/threonine-protein kinase Nek6 (Homo sapiens) (Q9HC98 whole entry): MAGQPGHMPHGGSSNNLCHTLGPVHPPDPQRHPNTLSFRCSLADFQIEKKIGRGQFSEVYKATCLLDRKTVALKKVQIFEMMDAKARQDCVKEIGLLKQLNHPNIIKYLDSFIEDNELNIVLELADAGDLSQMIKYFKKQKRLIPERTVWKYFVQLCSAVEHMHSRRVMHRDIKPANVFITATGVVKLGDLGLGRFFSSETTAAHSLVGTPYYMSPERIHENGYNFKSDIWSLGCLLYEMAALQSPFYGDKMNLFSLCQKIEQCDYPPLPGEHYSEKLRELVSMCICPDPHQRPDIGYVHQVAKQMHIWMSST
Chain of Leucine-rich repeat serine/threonine-protein kinase 2 (Q5S007 whole entry, the tested form may be a part): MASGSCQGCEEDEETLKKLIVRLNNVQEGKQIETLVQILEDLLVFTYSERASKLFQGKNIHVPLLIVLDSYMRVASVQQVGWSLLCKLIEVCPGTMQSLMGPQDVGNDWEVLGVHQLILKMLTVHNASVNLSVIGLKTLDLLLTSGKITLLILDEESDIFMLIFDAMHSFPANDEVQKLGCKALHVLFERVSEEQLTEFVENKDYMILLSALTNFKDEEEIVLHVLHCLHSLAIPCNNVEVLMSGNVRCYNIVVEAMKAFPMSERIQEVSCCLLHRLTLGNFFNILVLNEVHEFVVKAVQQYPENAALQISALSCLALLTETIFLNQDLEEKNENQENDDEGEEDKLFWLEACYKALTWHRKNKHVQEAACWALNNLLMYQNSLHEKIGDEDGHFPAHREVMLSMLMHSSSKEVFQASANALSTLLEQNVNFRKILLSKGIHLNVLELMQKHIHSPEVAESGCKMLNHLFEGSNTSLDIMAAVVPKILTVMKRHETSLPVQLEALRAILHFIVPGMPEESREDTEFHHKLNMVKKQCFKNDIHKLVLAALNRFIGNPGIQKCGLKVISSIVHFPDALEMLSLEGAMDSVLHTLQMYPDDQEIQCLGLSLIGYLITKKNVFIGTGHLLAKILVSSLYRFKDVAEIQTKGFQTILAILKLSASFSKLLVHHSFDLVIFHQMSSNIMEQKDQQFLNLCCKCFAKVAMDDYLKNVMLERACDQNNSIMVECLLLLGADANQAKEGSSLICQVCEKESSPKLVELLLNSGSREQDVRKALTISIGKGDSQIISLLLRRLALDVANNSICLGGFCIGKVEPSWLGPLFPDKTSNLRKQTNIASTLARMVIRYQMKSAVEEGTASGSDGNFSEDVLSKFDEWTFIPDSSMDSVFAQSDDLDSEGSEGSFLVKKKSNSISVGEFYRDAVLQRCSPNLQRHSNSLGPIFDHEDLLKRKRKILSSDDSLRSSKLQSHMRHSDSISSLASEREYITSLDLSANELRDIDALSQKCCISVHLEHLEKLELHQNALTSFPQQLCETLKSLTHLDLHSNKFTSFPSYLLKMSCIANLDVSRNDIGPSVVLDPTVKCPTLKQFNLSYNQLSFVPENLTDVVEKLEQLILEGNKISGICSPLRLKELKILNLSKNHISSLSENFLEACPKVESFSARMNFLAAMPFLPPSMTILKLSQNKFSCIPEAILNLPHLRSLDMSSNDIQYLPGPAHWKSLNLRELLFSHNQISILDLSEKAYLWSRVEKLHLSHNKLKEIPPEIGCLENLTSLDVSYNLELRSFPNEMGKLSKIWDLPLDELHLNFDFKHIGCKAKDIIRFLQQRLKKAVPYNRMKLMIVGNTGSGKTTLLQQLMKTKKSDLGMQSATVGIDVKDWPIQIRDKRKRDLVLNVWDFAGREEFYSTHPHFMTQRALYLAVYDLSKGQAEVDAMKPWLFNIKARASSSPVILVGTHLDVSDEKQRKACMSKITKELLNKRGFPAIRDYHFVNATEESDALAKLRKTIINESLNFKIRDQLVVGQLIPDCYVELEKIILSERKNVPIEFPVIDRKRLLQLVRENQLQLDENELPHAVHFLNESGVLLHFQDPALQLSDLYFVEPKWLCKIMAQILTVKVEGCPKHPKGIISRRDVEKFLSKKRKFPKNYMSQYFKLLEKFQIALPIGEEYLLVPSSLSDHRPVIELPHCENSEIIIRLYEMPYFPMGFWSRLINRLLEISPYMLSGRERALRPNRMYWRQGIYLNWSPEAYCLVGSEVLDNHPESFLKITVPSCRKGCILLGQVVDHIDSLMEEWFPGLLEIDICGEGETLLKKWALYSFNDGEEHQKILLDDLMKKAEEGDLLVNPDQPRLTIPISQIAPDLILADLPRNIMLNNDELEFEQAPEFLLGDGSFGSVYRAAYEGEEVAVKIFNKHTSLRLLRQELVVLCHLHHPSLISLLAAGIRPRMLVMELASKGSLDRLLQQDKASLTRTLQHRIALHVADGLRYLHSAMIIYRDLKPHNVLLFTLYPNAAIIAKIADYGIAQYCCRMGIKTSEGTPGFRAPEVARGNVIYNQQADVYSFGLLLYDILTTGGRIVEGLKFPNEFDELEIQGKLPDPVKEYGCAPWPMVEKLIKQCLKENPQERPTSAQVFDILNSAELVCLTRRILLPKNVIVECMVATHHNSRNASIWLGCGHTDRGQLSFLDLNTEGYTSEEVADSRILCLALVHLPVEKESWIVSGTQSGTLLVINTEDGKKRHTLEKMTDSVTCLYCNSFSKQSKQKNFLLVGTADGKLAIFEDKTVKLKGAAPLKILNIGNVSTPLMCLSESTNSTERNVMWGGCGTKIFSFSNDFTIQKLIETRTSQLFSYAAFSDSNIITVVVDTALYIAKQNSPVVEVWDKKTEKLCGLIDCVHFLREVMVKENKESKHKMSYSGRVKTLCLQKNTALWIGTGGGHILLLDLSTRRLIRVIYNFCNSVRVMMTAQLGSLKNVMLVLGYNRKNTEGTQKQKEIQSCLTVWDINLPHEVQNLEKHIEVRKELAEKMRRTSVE
Chain of Serine/threonine-protein kinase Nek9 (Homo sapiens) (Q8TD19 whole entry): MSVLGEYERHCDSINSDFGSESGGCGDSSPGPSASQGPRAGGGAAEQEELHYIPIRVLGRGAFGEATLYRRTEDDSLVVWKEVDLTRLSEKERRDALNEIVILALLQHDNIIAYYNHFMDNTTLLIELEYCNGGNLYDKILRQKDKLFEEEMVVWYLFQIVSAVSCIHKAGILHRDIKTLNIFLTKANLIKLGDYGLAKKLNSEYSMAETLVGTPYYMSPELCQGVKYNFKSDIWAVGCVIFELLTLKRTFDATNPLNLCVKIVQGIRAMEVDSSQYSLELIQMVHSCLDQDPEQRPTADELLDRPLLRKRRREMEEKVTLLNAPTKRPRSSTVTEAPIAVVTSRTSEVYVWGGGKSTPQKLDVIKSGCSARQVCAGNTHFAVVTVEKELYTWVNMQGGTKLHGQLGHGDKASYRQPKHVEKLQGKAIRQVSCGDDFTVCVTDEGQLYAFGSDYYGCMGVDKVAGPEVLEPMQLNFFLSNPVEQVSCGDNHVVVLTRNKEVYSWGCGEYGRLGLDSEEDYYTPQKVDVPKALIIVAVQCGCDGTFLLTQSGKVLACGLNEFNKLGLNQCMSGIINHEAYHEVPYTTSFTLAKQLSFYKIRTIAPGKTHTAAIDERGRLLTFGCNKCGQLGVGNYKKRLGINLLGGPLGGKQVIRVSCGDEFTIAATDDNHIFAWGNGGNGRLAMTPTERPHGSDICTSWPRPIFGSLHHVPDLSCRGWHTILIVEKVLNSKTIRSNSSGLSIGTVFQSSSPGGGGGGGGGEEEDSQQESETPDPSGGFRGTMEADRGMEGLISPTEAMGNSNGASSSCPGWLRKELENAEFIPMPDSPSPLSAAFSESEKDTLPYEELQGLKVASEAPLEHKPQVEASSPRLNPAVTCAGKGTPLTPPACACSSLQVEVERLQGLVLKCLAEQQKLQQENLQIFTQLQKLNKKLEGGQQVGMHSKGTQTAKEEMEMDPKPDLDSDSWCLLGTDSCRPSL
Chain of Tyrosine-protein kinase BTK (Homo sapiens) (Q06187 whole entry): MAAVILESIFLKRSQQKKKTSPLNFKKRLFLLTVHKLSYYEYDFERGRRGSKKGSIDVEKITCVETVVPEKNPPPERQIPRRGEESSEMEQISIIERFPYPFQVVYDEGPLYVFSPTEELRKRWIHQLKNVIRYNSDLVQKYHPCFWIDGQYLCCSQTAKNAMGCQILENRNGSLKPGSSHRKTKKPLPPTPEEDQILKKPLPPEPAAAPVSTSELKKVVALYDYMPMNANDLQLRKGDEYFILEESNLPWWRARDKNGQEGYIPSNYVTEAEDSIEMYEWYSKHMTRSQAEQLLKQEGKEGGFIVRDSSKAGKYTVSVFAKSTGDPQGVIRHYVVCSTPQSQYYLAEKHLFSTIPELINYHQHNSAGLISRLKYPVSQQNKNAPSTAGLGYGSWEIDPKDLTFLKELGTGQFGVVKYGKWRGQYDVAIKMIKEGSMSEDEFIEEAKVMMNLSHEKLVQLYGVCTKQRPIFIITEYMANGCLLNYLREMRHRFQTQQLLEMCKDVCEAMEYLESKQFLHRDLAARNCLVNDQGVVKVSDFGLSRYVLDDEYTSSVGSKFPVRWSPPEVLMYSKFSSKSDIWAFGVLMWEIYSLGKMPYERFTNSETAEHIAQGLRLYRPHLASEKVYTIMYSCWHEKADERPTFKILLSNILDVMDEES
Chain of MAP kinase-activated protein kinase 3 (Homo sapiens) (Q16644 whole entry, looked up): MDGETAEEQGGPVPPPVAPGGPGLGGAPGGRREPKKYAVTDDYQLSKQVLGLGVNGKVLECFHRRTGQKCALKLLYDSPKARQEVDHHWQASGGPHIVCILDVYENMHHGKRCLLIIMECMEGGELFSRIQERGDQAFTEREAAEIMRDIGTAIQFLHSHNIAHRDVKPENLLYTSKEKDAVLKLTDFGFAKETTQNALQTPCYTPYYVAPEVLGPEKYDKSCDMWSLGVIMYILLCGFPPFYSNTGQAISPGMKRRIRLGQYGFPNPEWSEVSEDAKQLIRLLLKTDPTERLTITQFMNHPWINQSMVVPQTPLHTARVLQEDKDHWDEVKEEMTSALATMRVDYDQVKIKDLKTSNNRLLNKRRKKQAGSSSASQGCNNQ

`CC(C)n1cc(-c2cc(-c3ccc(CN4CCOCC4)cc3)cnc2N)nn1`: the inhibition was 2.2% in test [1]; 8.6% in [2]; 13% in test [3]; 10.8% in [4]; -0.5% in test [5]; 2.5% in test [6]. Moreover, the inhibition in [7] was 25.5%; in test [8] it was -6%; in [9], 17.5%; in test [10], -4.8%; in test [11] it was 17.4%; in test [12], -5.2%.

For orientation: inhibition means the drop in the measured response relative to a control, in per cent.

The values are drawn from ChEMBL document CHEMBL4043168, “The design and SAR of a novel series of 2-aminopyridine based LRRK2 inhibitors” (Bioorg Med Chem Lett, 2017).
